Assays:
Format in all cases: functional
Conditions in all cases: read-out: IZ
Escherichia coli = test: Antibiotic activity against Escherichia coli at 200 ug/disk after 24 hrs by disk diffusion method
Candida albicans = test: Antifungal activity against Candida albicans at 200 ug/disk after 24 hrs by disk diffusion method
Staphylococcus aureus = test: Antibiotic activity against Staphylococcus aureus at 200 ug/disk after 24 hrs by disk diffusion method

Row | SMILES | zone of inhibition at 200 µg/disc (Escherichia coli) | zone of inhibition at 200 µg/disc (Candida albicans) | zone of inhibition at 200 µg/disc (Staphylococcus aureus)
1 | CO[C@@H]1O[C@@H](OC)c2c1ccc([C@@]1(C)CCCC(C)(C)C1)c2[C@@H](C)C(=O)O [MEMBRANOLIDE C] | 8 mm | 4 mm | 0 mm
2 | CO[C@H]1O[C@@H](OC)c2c1ccc([C@@]1(C)CCCC(C)(C)C1)c2[C@@H](C)C(=O)O [MEMBRANOLIDE D] | 6 mm | 9 mm | 7 mm

Source: ChEMBL document CHEMBL1151253, “Further membranolide diterpenes from the antarctic sponge dendrilla membranosa” (2004)
